Assay results as given in patent EP0093488A2, “Nortropyl benzopyrrolinone compounds, process for their preparation and pharmaceutical compositions containing them” (BEECHAM GROUP PLC, priority 1982, dated 1983).

Test system: post-synaptic Dopamine (D.A.) receptors
Assay: Inhibition of apomorphine induced climbing in the mouse
Type: in vivo
Conditions: dose for 50% inhibition of apomorphine (1 mg/kg s.c.) induced climbing, male CD1 mice, ½ hour post dosing po; 30 min

Compound	ED50
4-Chloro- and 6-Chloro-5-amino-2-(3β-N-(9-(4^1-methylbenzyl) -9-azabicyclo[3.3.1]nonyl)]phthalimidine [Compound E8]	0.5 mg/kg
Cc1ccc(CN2[C@@H]3CCC[C@H]2C[C@H](N2Cc4ccccc4C2=O)C3)cc1 [Compound E1]	1.1 mg/kg
Cc1ccc(CN2[C@@H]3CCC[C@H]2C[C@H](N2Cc4cc(Cl)ccc4C2=O)C3)cc1 [Compound E2]	0.5 mg/kg
O=C1c2ccc(Cl)cc2CN1[C@@H]1C[C@H]2CCC[C@@H](C1)N2Cc1ccc(F)cc1 [Compound E3]	1.2 mg/kg
Nc1ccc2c(c1)CN([C@@H]1C[C@H]3CCC[C@@H](C1)N3Cc1ccc(F)cc1)C2=O [Compound E5, 5-Amino-2-(3β-N-(9-(4^1-fluorobenzyl)-9-azabicyclo[3.3.1]nonyl)]phthalimidine]	0.6 mg/kg
Cc1ccc(CN2[C@@H]3CCC[C@H]2C[C@H](N2Cc4cc(N)ccc4C2=O)C3)cc1 [Compound E6, 5-Amino-2-[3β-N-(9-(4^1-methylbenzyl)-9-azabicyclo[3.3.1]nonyl)]phthalimidine]	0.3 mg/kg

Same assay, conditions: subcutaneous dosing; dose for 50% inhibition of apomorphine (1 mg/kg s.c.) induced climbing, male CD1 mice; 30 min

Compound	ED50
CN(C)S(=O)(=O)c1ccc2c(c1)C(=O)N([C@@H]1C[C@H]3CC[C@@H](C1)N3Cc1ccccc1)C2 [Compound E9, 6-Dimethylaminosulphonyl-2-N-[3β(8-benzyl-8-azabicyclo [3.2.1]octyl)]phthalimidine]	3.0 (subcutaneous dosing) mg/kg
